Laboratory results: PMC4096218 (Journal of Medicinal Chemistry, 2014)
pIC50: −log10 of the molar value. Converted amounts (≈) assume the structure as drawn.

Tests used:
[1] = biological target: T1, EcUPPS (Escherichia coli, UniProt P60472); details: inhibitor in EcUPPS X-ray structure 2E98; cited from earlier work
T1 sequence (P60472 1-253): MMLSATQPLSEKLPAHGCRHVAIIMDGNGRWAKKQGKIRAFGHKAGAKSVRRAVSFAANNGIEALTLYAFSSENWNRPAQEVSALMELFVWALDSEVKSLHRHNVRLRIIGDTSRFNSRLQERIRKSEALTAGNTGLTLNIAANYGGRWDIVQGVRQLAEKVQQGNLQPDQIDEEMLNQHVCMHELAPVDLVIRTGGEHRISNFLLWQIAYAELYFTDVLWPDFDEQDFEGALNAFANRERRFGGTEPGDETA

[2] = test system: Bacillus anthracis strain Sterne; assay: microbe, parasite or virus in culture; assay type: cell-based
[3] = test system: panel of both Gram-positive and Gram-negative bacteria; assay type: cell-based; details: for MIC values (range in words): B. anthracis Sterne, MRSA, VRE, L. monocytogenes

SMILES	pIC50 [1]	MIC [2] [µg/mL]	MIC values (range in words) [3]	growth of Gram negatives [3]	growth of Gram positives [3]
O=P(O)(O)C(O)(Cc1cccc(-c2cccc3c2oc2ccccc23)c1)P(=O)(O)O [BPH-629]	~6.52	–	–	–	–
Cc1cc(Cl)ccc1-c1ccc(/C=C2\SC(=S)N(CC(=O)O)C2=O)o1 [Compound 1]	–	1 to 2 (≈ 2.54 to 5.08 µM)	high ng/mL to low μg/mL range	did not inhibit the growth of Gram negatives	inhibited the growth of Gram positives
O=C(O)CCN1C(=O)/C(=C/c2ccc(-c3ccc(Cl)cc3Cl)o2)SC1=S [Compound 4]	–	–	high ng/mL to low μg/mL range	did not inhibit the growth of Gram negatives	inhibited the growth of Gram positives
